Read-outs that look alike come from different tables or passages of the source.
Key:
Type in all cases: in vivo
[1] = system: cat flea (Ctenocephalides felis); experiment: Ctenocephalides felis adulticide assay: dose response (LC50)
Text: c) Ctenocephalides felis Adulticide Assay: C. felis Dose Response
The purpose of this example was to determine the LC50 when cat fleas were contacted with a glass surface treated with sample compounds or formulations prepared as described above. Mortality of fleas was defined as follows: fleas were considered dead if they didn't move or were on their sides and unable to walk or right themselves. LC50: Lethal Concentration 50—concentration of glass surface treatment at which 50% of the cat fleas were killed. The test species was the cat flea (Ctenocephalides felis). The strain used was obtained from external suppliers as pupae and held in the laboratory under testing conditions until the adults had emerged. Fifteen (15) fleas were used in a minimum of four replicates for each dose level (total of 60 fleas per dose level). The insects were selected to be in the adult life stage, aged between 3 and 7 days post emergence.
The compounds to be tested were dissolved in acetone just prior to testing. Samples of compounds were stored in a refrigerator (5±1° C.) unless otherwise specified. During the mortality testing, the temperature was maintained at 25+1° C. Humidity was maintained at 75±5%. The base (area=159 mm^2) of a 100 mL glass Erlenmeyer (conical) flask provided the treatment surface. Flasks were pretreated with Coatasil™ glass treatment to maximise bio-availability of test compounds by preventing them from binding to the glass surface.
Six dose levels (concentrations) of test sample, in the form of a serial dilution, were derived from a pilot study and covered a range that produced very low to very high mortality. The base of the 100 mL Erlenmeyer flask was treated with 0.5 mL of test sample in acetone and gently swirled. This volume was sufficient to cover the base of the flask. Flasks were left to dry for 24 hours before flea exposure. Adult cat fleas were lightly anaesthetised by cooling and then placed into a sorting chamber, which allowed fleas to revive and jump into the Erlenmeyer flasks. Fifteen (15)adult cat fleas were collected in each flask. The top of the flasks were then covered in Parafilm™ and small holes made to allow gas exchange. A 0.5 mL volume of acetone was applied to the base of an Erlenmeyer flask and the testing proceeded in the same manner described above. Cat fleas in the treatment containers were held under testing conditions for 24 hours. Mortality resulting from the treatments was recorded at 8 and 24 hours.

[2] = system: cat flea (Ctenocephalides felis); experiment: whole plant or invertebrate; conditions: Ctenocephalides felis; for mortality at 1.26 µg/cm2, 1.26 µg/cm2: Laboratory 1 A data
Method in brief: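 Single-dose screen at 1.26 μg/cm^2: acetone solution dried for 24 h on a Coatasil-treated 159 mm^2 flask base, then 15 adult cat fleas aged 3-7 days per flask, four or more replicates, acetone control. Percent dead, meaning not moving or unable to right themselves, recorded after 8, 24 and/or 48 h at 25 °C and 75% RH.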

Haemonchus contortus = Haemonchus contortus larvacidal (larval development) assay; conditions: 144 h, read-out: Haemonchus contortus LD99
Description: a) Haemonchus Contortus Larvacidal Assay:
The effect of compounds on larval development was determined in the assay described by Gill et al. (1995, International Journal of Parasitology 25:463-470). Briefly, in this assay, nematode eggs were applied to the surface of an agar matrix containing the test compound and then allowed to develop through to the L3, infective stage (6 days). The wells for each dilution of every compound (from highest to lowest concentration) were inspected to determine the well number corresponding to the lowest concentration at which development was inhibited in 99% of the nematode larvae present (LD99). Because well numbers correspond to a two-fold serial dilution of each compound, a titre (dilution factor) is generated as 2^n−1, where n is the well number. By dividing the highest concentration tested by the titre an LD99 value can be obtained, representing the concentration required to inhibit development in 99% of the nematode larvae present. The compounds supplied as solid and viscous liquids were dissolved in DMSO. Twelve serial one-half dilutions in DMSO solution were prepared from the stock solution, each of which was then diluted ⅕ with water. Aliquots (10 μl) of each dilution were transferred to the bioassay plates to give a final concentration range of 0.024 to 50 μg/ml.

[3] = 24 h, read-out: C. felis Mortality (%) 24 h, 24 h
[4] = 8 h, read-out: C. felis Mortality (%) 8 h, 8 h
[5] = 24 h, read-out: Ctenocephalides felis Mortality (%) 24 h
[6] = lowest concentration inhibiting development in 99% of larvae, eggs to L3, 6 days, range 0.024 to 50 μg/ml

| Structure (SMILES) | C. felis LC50 ([1]; Laboratory 1 C data) [μg/cm^2] | mortality at 1.26 µg/cm2, 1.26 µg/cm2 [2, 3] [%] | IC99 (Haemonchus contortus) [µg/mL] | mortality at 1.26 µg/cm2, 1.26 µg/cm2 [2, 4] [%] | also measured |
| --- | --- | --- | --- | --- | --- |
| C/C(=N\OCC(C)C)c1cc(Cl)ccc1NS(=O)(=O)C(F)(F)F [Compound 172] | 0.06 | 100 |  |  |  |
| CC/C(=N\Oc1ccc(Cl)c(Cl)c1)c1cc(Cl)ccc1NS(=O)(=O)C(F)(F)F [Compound 139] |  | 64 | 0.9 |  | C. felis LC50 ([1]; Laboratory 2 D data): 0.3^D μg/cm^2 |
| CC/C(=N\OC(CC)CC)c1cc(Cl)ccc1NS(=O)(=O)C(F)(F)F [Compound 171] | 0.4 | 100 |  |  |  |
| CC/C(=N\OCc1cccc(Cl)c1Cl)c1cc(Cl)ccc1NS(=O)(=O)C(F)(F)F [Compound 72] | 0.5 | 63 | 0.3 | 13 |  |
| C/C(=N\OC1CCCCC1)c1cc(Cl)ccc1NS(=O)(=O)C(F)(F)F [Compound 161] | 0.2 | 100 |  |  |  |
| C/C(=N\OC(C)C)c1cc(Cl)ccc1NS(=O)(=O)C(F)(F)F [Compound 158] | 0.2 | 100 |  |  |  |
| C=CCO/N=C(\C)c1cc(Cl)ccc1NS(=O)(=O)C(F)(F)F [Compound 181] | 0.1 | 100 |  |  |  |
| C/C(=N\Oc1cccc(C(F)(F)F)c1)c1cc(Cl)ccc1NS(=O)(=O)C(F)(F)F [Compound 134, N-{4-chloro-2-[1-(3-trifluoromethylphenoxyimino)ethyl]phenyl}trifluoromethanesulfonamide] | 0.4 | 96 | 0.4 |  |  |
| CC/C(=N\OCCOc1ccccc1)c1cc(Cl)ccc1NS(=O)(=O)C(F)(F)F [Compound 106] | 1.0 | 48 | 11 |  |  |
| CCC/C(=N\OCc1ccc(Cl)cc1Cl)c1cc(Cl)ccc1NS(=O)(=O)C(F)(F)F [Compound 100, N-{4-chloro-2-[1-(2,4-dichlorobenzyloxyimino)butyl]}trifluoromethanesulfonamide] | 0.4 | 88 | 1.8 | 58 |  |
| CC/C(=N\OCc1ccccc1Cl)c1cc(Cl)ccc1NS(=O)(=O)C(F)(F)F [Compound 10] | 0.3 | 73 | 2.7 | 56 |  |
| CC/C(=N\OCC(C)C)c1cc(Cl)ccc1NS(=O)(=O)C(F)(F)F [Compound 159] | 0.2 | 100 |  |  |  |
| C/C(=N\OC(C)c1ccc(Cl)cc1)c1cc(Cl)ccc1NS(=O)(=O)C(F)(F)F (centres unmarked) [Compound 123] | 1.2 |  | 0.9 | 11 | C. felis LC50 ([1]; Laboratory 2 D data): 0.3 μg/cm^2 |
| CC/C(=N\Oc1cccc(Cl)c1)c1cc(Cl)ccc1NS(=O)(=O)C(F)(F)F [Compound 131] | 0.7 | 100 | 1.6 |  |  |
| CC/C(=N\OCc1ccc(F)cc1F)c1cc(Cl)ccc1NS(=O)(=O)C(F)(F)F [Compound 84] |  |  | 3.3 | 95 |  |
| C/C(=N\OCc1ccc(C(F)(F)F)cc1C(F)(F)F)c1cc(Cl)ccc1NS(=O)(=O)C(F)(F)F [Compound 2, N-{2-[1-(2,4-bistrifluoromethylbenzyloxyimino)ethyl]-4-chlorophenyl}trifluoromethanesulfonamide] |  |  | 0.1 | 2 |  |
| O=S(=O)(Nc1ccc(Cl)cc1-c1cc(-c2ccc(F)cc2F)on1)C(F)(F)F [Compound 231, N-{4-chloro-2-[5-(2,4-difluorophenyl)isoxazol-3-yl]phenyl}trifluoromethanesulfonamide] |  |  |  |  | mortality at 1.26 µg/cm2 [2, 5]: 7%; IC99 (Haemonchus contortus; [6]): 0.6 µg/mL |

| Structure (SMILES) | C. felis LC50 ([1]; Laboratory 1 C data) [μg/cm^2] | mortality at 1.26 µg/cm2, 1.26 µg/cm2 [2, 3] [%] | IC99 (Haemonchus contortus) [µg/mL] | mortality at 1.26 µg/cm2, 1.26 µg/cm2 [2, 4] [%] | also measured |
| --- | --- | --- | --- | --- | --- |
| CC/C(=N\OCc1c(F)c(F)c(F)c(F)c1F)c1cc(Cl)ccc1NS(=O)(=O)C(F)(F)F [Compound 77] |  |  | 2.5 | 3 |  |
| CC(C)/C(=N\OCc1ccc(C(F)(F)F)cc1C(F)(F)F)c1cc(Cl)ccc1NS(=O)(=O)C(F)(F)F [Compound 116, N-{2-[1-(2,4-bistrifluoromethylbenzyloxyimino)-2-methylpropyl]-4-chlorophenyl}trifluoromethanesulfonamide] |  |  | 0.9 | 10 |  |
| CC/C(=N\OCc1ccc(Cl)cc1Cl)c1cc(Cl)ccc1NS(=O)(=O)C(F)(F)F [Compound 74] | 0.2 |  | 0.4 | 94 |  |
| CC/C(=N\Oc1cccc(C(F)(F)F)c1)c1cc(Cl)ccc1NS(=O)(=O)C(F)(F)F [Compound 133] |  | 71 | 0.9 |  |  |
| O=S(=O)(Nc1ccc(Cl)cc1-c1cc(-c2ccc(Cl)cc2)on1)C(F)(F)F [Compound 227] |  |  |  |  | mortality at 1.26 µg/cm2 ([2]; 8 h, read-out: Ctenocephalides felis Mortality (%) 8 h): 7%; mortality at 1.26 µg/cm2 [2, 5]: 9%; IC99 (Haemonchus contortus; [6]): 0.1 µg/mL |
| O=S(=O)(Nc1ccc(Cl)cc1/C=N/OCc1ccc(Br)cc1)C(F)(F)F [Compound 96] |  | 21 | 0.7 |  |  |
| C/C(=N\Oc1ccc(Cl)cc1)c1cc(Cl)ccc1NS(=O)(=O)C(F)(F)F [Compound 127] | 0.3 | 90 | 0.4 |  |  |
| C/C(=N\Oc1ccc(C#N)cc1)c1cc(Cl)ccc1NS(=O)(=O)C(F)(F)F [Compound 135] |  | 47 | 3 |  |  |
| CC/C(=N\OCc1ccc(C#N)cc1)c1cc(Cl)ccc1NS(=O)(=O)C(F)(F)F [Compound 91] |  | 67 | 13 |  |  |
| O=S(=O)(Nc1ccc(Cl)cc1/C=N/OCc1ccc(C(F)(F)F)cc1C(F)(F)F)C(F)(F)F [Compound 65, N-{2-[(2,4-bistrifluoromethylbenzyloxyimino)methyl]-4-chlorophenyl}trifluoromethanesulfonamide] |  |  | 0.3 | 10 |  |
| C/C(=N\OC1CCCC1)c1cc(Cl)ccc1NS(=O)(=O)C(F)(F)F [Compound 163, N-[4-chloro-2-(1-cyclopentyloxyiminoethyl)phenyl]trifluoromethanesulfonamide] | 0.1 | 100 |  |  |  |
| CC/C(=N\OC1C=CCCC1)c1cc(Cl)ccc1NS(=O)(=O)C(F)(F)F (centres unmarked) [Compound 170] | 0.2 | 97 |  |  |  |
| C/C(=N\OCc1ccc(Cl)cc1Cl)c1cc(Cl)ccc1NS(=O)(=O)C(F)(F)F [Compound 21] |  |  | 0.7 | 5 |  |
| C/C(=N\Oc1ccc(Br)cc1)c1cc(Cl)ccc1NS(=O)(=O)C(F)(F)F [Compound 137] |  | 91 | 0.4 |  |  |
| C/C(=N\OCc1ccc(C(F)(F)F)cc1C(F)(F)F)c1cc(F)ccc1NS(=O)(=O)C(F)(F)F [Compound 121] |  |  | 0.6 | 3 |  |
| C/C(=N\Oc1ccccc1)c1cc(Cl)ccc1NS(=O)(=O)C(F)(F)F [Compound 125] |  |  | 5.5 | 6 |  |
| CC/C(=N\OCc1cc(Br)cc(Br)c1)c1cc(Cl)ccc1NS(=O)(=O)C(F)(F)F [Compound 109] |  |  | 2.8 | 3 |  |

Source: patent publication US7312248B2, “Control of parasites in animals by the use of novel trifluoromethanesulfonanilide oxime ether derivatives” (Schering-Plough Animal Health Corporation, priority 2004, dated 2007)
